Data published in patent US20110166121A1 (LG LIFE SCIENCES LTD., priority 2008, published 2011).

Target: T1, Human P2Y12 receptor (Homo sapiens, UniProt Q9H244)
T1 construct: expressed in transfected cells; host or cells: HEK cells
Experiment: Human P2Y12 receptor cell membrane binding assay with [3H] 2-Mes-ADP
Conditions: 1 nM [3H] 2-Mes-ADP, membranes of HEK cells expressing P2Y12 receptor; read-out: Binding activity (IC50)
Method: Human P2Y12 Receptor Cell Membrane Binding Assay with [^3H] 2-Mes-ADP
Whether test compounds bind to P2Y12 receptor is measured by [3H]-2MesADP binding in HEK cells expressing P2Y12 receptor. The efficacy according to the amount of test compound can be known through the above test, competitive binding test to P2Y12 receptor, in which the binding material (2-Mes-ADP) is labeled with radioactivity isotope and then the extent of inhibition against the binding of radioactively labeled material is measured.
Preparation of P2Y12 Membrane Protein Fraction
Harvested P2Y12 cells were resuspended with Hypotonic buffer (10 mM HEPES, 10 mM NaCl, 1 mM EDTA, 1 mM EGTA pH 7.4) containing protease inhibitor cocktail. Following the incubation on ice for 15 min, cells were homogenized on ice (Glass/Teflon homogenizer; 1,000 rpm, 10 strokes). The supernant was taken from centrifugation at 500×g for 15 min and then recentrifuged the supernant at 30,000 rpm for 30 min. The membrane pellet was adjusted to 1 mg/mL concentration and stored at −80° C.
P2Y12 Receptor Cell Membrane Binding Assay with [3H] 2-Mes-ADP
The volume of 100 μL of 200 μg membrane protein was aliquoted into 96 well plate. 50 μL volume of test compounds and [^3H] 2-Mes-ADP (final: 1 nM) were added into each well. The total reaction of 0.2 ml/well was incubated for 1 hour at R.T. The reaction was terminated by filtration through GF/B filter using a 96-well cell harvester. […] Radioactivity bound to P2Y12 receptor membrane was counted in a scintillation counter. Total binding was determined with CPM of test group having no compound and non-specific binding was determined with CPM of test group containing 10 μM 2-Mes-ADP. Binding inhibition percent was calculated as follows: [100−(specific binding in the presence of test material/specific binding in the absence of test material×100)].

T1 sequence (Q9H244 whole entry): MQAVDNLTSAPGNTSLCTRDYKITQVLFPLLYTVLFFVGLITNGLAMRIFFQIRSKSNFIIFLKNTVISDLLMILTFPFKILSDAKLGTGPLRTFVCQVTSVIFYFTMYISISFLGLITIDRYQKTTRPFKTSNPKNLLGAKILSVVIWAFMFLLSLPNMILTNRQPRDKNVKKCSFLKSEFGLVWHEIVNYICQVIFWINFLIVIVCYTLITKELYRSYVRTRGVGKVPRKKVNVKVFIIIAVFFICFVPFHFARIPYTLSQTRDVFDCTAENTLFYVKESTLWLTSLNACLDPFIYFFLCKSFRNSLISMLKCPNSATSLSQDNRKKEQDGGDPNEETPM

Compound	IC50
CCCc1cc2c(N3CCn4c(nnc4C(F)(F)F)C3)nc(NCC(O)CO)nc2s1 (stereo not drawn) [Example 1-2, 3-[6-Propyl-4-(3-trifluoromethyl-5,6-dihydro-8H-[1,2,4]triazolo[4,3-a]pyrazin-7-yl)-thieno[2,3-d]pyrimidin-2-ylamino]-propane-1,2-diol]	160 nM
CCCc1cc2c(N3CCn4c(nnc4C(F)(F)F)C3)nc(N3CCc4[nH]ncc4C3)nc2s1 [Example 1-76, 7-[6-Propyl-2-(1,4,6,7-tetrahydro-pyrazolo[4,3-c]pyridin-5-yl)-thieno[2,3-d]pyrimidin-4-yl]-3-trifluoromethyl-5,6,7,8-tetrahydro-[1,2,4]triazolo[4,3-a]pyrazine]	28 nM
CCCc1cc2c(N3CCn4c(nnc4C(F)(F)F)C3)nc(N3CCc4c(nc(C)nc4C(F)(F)F)C3)nc2s1 [Example 1-80, 2-Methyl-7-[6-propyl-4-(3-trifluoromethyl-5,6-dihydro-8H-[1,2,4]triazolo[4,3-a]pyrazin-7-yl)-thieno[2,3-d]pyrimidin-2-yl]-4-trifluoromethyl-5,6,7,8-tetrahydro-pyrido[3,4-d]pyrimidine]	43 nM
CCCc1cc2c(N3CCn4c(nnc4C(F)(F)F)C3)nc(Nc3nc(C(=O)OCC)cs3)nc2s1 [Example 1-131, 2-[6-Propyl-4-(3-trifluoromethyl-5,6-dihydro-8H-[1,2,4]triazolo[4,3-a]pyrazin-7-yl)thieno[2,3-d]pyrimidin-2-ylamino]thiazole-4-carboxylic acid ethyl ester]	1930 nM
Cc1cc2c(N3CCn4c(nnc4C(F)(F)F)C3)nc(N3CCNC(=O)C3)nc2s1 [Example 2-1, 4-[6-Methyl-4-(3-trifluoromethyl-5,6-dihydro-8H-[1,2,4]triazolo[4,3-a]pyrazin-7-yl)-thieno[2,3-d]pyrimidin-2-yl]-piperazin-2-one]	1100 nM
CCc1cc2c(N3CCn4c(nnc4C(F)(F)F)C3)nc(NCC(O)CO)nc2s1 (stereo not drawn) [Example 2-3, 3-[6-Ethyl-4-(3-trifluoromethyl-5,6-dihydro-8H-[1,2,4]triazolo[4,3-a]pyrazin-7-yl)-thieno[2,3-d]pyrimidin-2-ylamino]-propane-1,2-diol]	847 nM
CCc1cc2c(N3CCn4c(nnc4C(F)(F)F)C3)nc(N[C@@H]3C[C@H](OCCO)[C@@H](O)[C@H]3O)nc2s1 [Example 2-4, (1S,2S,3R,5S)-3-[6-Ethyl-4-(3-trifluoromethyl-5,6-dihydro-8H-[1,2,4]triazolo[4,3-a]pyrazin-7-yl)-thieno[2,3-d]pyrimidin-2-ylamino]-5-(2-hydroxy-ethoxy)-cyclopentane-1,2-diol]	8920 nM
CCc1cc2c(N3CCn4c(nnc4C(F)(F)F)C3)nc(NCCN)nc2s1 [Example 2-8, N*1*-[6-Ethyl-4-(3-trifluoromethyl-5,6-dihydro-8H-[1,2,4]triazolo[4,3-a]pyrazin-7-yl)-thieno[2,3-d]pyrimidin-2-yl]-ethane-1,2-diamine]	2280 nM
CCc1cc2c(N3CCn4c(nnc4C(F)(F)F)C3)nc(NCC(=O)O)nc2s1 [Example 2-9, [6-Ethyl-4-(3-trifluoromethyl-5,6-dihydro-8H-[1,2,4]triazolo[4,3-a]pyrazin-7-yl)-thieno[2,3-d]pyrimidin-2-ylamino]-acetic acid]	2170 nM
CC(C)c1cc2c(N3CCn4c(nnc4C(F)(F)F)C3)nc(NCCO)nc2s1 [Example 2-11, 2-[6-Isopropyl-4-(3-trifluoromethyl-5,6-dihydro-8H-[1,2,4]triazolo[4,3-a]pyrazin-7-yl)-thieno[2,3-d]pyrimidin-2-ylamino]-ethanol]	1820 nM
CC(C)c1cc2c(N3CCn4c(nnc4C(F)(F)F)C3)nc(N3CCN(C)CC3)nc2s1 [Example 2-13, 7-[6-Isopropyl-2-(4-methyl-piperazin-1-yl)-thieno[2,3-d]pyrimidin-4-yl]-3-trifluoromethyl-5,6,7,8-tetrahydro-[1,2,4]triazolo[4,3-a]pyrazine]	1100 nM
CCCc1cc2c(N3CCn4c(nnc4C(F)(F)F)C3)nc(OC3Cc4ccccc4C3)nc2s1 [Example 3-22, 7-[2-(Indan-2-yloxy)-6-propyl-thieno[2,3-d]pyrimidin-4-yl]-3-trifluoromethyl-5,6,7,8-tetrahydro-[1,2,4]triazolo[4,3-a]pyrazine]	130 nM

System: Human platelet aggregation caused by ADP
Experiment: Inhibition of ADP-induced platelet aggregation (Mimic-human PRP)
Type: cell-based
Conditions: 20 μM ADP, human platelet concentrate diluted with PPP, absorption at 595 nm
Outline: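 Human PRP diluted with PPP to 3–4×10^8 platelets/mL was preincubated 20 min at room temperature with compound (0.01–30 μM, DMSO), then stimulated with 20 μM ADP. Aggregation read as A595 increase at 3 min versus 0 and 20 μM ADP controls; Ki from sigmoidal non-linear regression.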

Compound	Ki
CCCc1cc2c(N3CCn4c(nnc4C(F)(F)F)C3)nc(N3CC[C@H](N(CCO)C(C)=O)C3)nc2s1 [Example 9-96, N-(2-Hydroxy-ethyl)-N-{(S)-1-[6-propyl-4-(3-trifluoromethyl-5,6-dihydro-8H-[1,2,4]triazolo[4,3-a]pyrazin-7-yl)-thieno[2,3-d]pyrimidin-2-yl]-pyrrolidin-3-yl}-acetamide]	78 nM
CCCc1cc2c(N3CCn4c(nnc4C(F)(F)F)C3)nc(OCCN(C)C(C)=O)nc2s1 [Example 9-97, N-Methyl-N-{2-[6-propyl-4-(3-trifluoromethyl-5,6-dihydro-8H-[1,2,4]triazolo[4,3-a]pyrazin-7-yl)-thieno[2,3-d]pyrimidin-2-yloxy]-ethyl}-acetamide]	6 nM
CCCc1cc2c(N3CCn4c(nnc4C(F)(F)F)C3)nc(OCCN(CCO)C(=O)OC)nc2s1 [Example 9-98, (2-Hydroxy-ethyl)-{2-[6-propyl-4-(3-trifluoromethyl-5,6-dihydro-8H-[1,2,4]triazolo[4,3-a]pyrazin-7-yl)-thieno[2,3-d]pyrimidin-2-yloxy]-ethyl}-carbamic acid methyl ester]	23 nM
CCCc1cc2c(N3CCn4c(nnc4C(F)(F)F)C3)nc(OCCN3CCOC3=O)nc2s1 [Example 9-99, 3-{2-[6-Propyl-4-(3-trifluoromethyl-5,6-dihydro-8H-[1,2,4]triazolo[4,3-a]pyrazin-7-yl)-thieno[2,3-d]pyrimidin-2-yloxy]-ethyl}-oxazolidin-2-one]	4 nM
CCCc1cc2c(N3CCn4c(nnc4C(F)(F)F)C3)nc(OCCN(CCOC(C)=O)C(C)=O)nc2s1 [Example 9-100, Acetic Acid 2-(acetyl-{2-[6-propyl-4-(3-trifluoromethyl-5,6-dihydro-8H-[1,2,4]triazolo[4,3-a]pyrazin-7-yl)-thieno[2,3-d]pyrimidin-2-yloxy]-ethyl}-amino)-ethyl ester]	38 nM
CCCc1cc2c(N3CCn4c(nnc4C(F)(F)F)C3)nc(OCCN(C=O)CCO)nc2s1 [Example 9-101, N-(2-Hydroxy-ethyl)-N-{2-[6-propyl-4-(3-trifluoromethyl-5,6-dihydro-8H-[1,2,4]triazolo[4,3-a]pyrazin-7-yl)-thieno[2,3-d]pyrimidin-2-yloxy]-ethyl}-formamide]	12 nM
CCCc1cc2c(N3CCn4c(nnc4C(F)(F)F)C3)nc(OCCN(CCO)C(C)=O)nc2s1 [Example 9-102, N-(2-Hydroxy-ethyl)-N-{2-[6-propyl-4-(3-trifluoromethyl-5,6-dihydro-8H-[1,2,4]triazolo[4,3-a]pyrazin-7-yl)-thieno[2,3-d]pyrimidin-2-yloxy]-ethyl}-acetamide]	8 nM
CCCc1cc2c(N3CCn4c(nnc4C(F)(F)F)C3)nc(N(C)CCC#N)nc2s1 [Example 9-103, 3-{Methyl-[6-propyl-4-(3-trifluoromethyl-5,6-dihydro-8H-[1,2,4]triazolo[4,3-a]pyrazin-7-yl)-thieno[2,3-d]pyrimidin-2-yl]-amino}-propionitrile]	70 nM
CCCc1cc2c(N3CCn4c(nnc4C(F)(F)F)C3)nc(N(C)CCC(N)=O)nc2s1 [Example 9-104, 3-{Methyl-[6-propyl-4-(3-trifluoromethyl-5,6-dihydro-8H-[1,2,4]triazolo[4,3-a]pyrazin-7-yl)-thieno[2,3-d]pyrimidin-2-yl]-amino}-propionamide]	14 nM
CCCc1cc2c(N3CCn4c(nnc4C(F)(F)F)C3)nc(OCCN3C(=O)CNC3=O)nc2s1 [Example 9-105, 3-{2-[6-Propyl-4-(3-trifluoromethyl-5,6-dihydro-8H-[1,2,4]triazolo[4,3-a]pyrazin-7-yl)-thieno[2,3-d]pyrimidin-2-yloxy]-ethyl}-imidazolidine-2,4-dione]	> 3000 nM
CCCc1cc2c(N3CCn4c(nnc4C(F)(F)F)C3)nc(N(C)CCO)nc2s1 [Example 9-106, 2-{Methyl-[6-propyl-4-(3-trifluoromethyl-5,6-dihydro-8H-[1,2,4]triazolo[4,3-a]pyrazin-7-yl)-thieno[2,3-d]pyrimidin-2-yl]-amino}-ethanol]	140 nM
CCCc1cc2c(N3CCn4c(nnc4C(F)(F)F)C3)nc(NC(=O)OC)nc2s1 [Example 9-107, [6-Propyl-4-(3-trifluoromethyl-5,6-dihydro-8H-[1,2,4]triazolo[4,3-a]pyrazin-7-yl)-thieno[2,3-d]pyrimidin-2-yl]-carbamic acid methyl ester]	170 nM
